From ChEMBL document CHEMBL1201862, “PubChem BioAssay data set” (2004)
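Step 1: Grow cells in 96-well plates. Step 2: Expose to compound for 48 hours at 5 concentrations. Step 3: Interpolate endpoints linearly; if unreached, use highest concentration. GI50 marks 50% less growth.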 Active and inactive are the calls of the source. Rule as the data show it: active = GI50 up to about 1.1 µM and inactive = higher.

Key:
Test in all cases: growth of human tumour cells (NCI), 48 h
UACC-62 = test system: UACC-62
SR = test system: SR
OVCAR-8 = test system: OVCAR-8
SF-268 = test system: SF-268
HOP-92 = test system: HOP-92
NCI-H460 = test system: NCI-H460
U-251 = test system: U-251
T47D = test system: T47D
A549 = test system: A549
MOLT-4 = test system: MOLT-4
SW-620 = test system: SW-620
A498 = test system: A498
786-0 = test system: 786-0
K562 = test system: K562
M14 = test system: M14
SK-MEL-28 = test system: SK-MEL-28
OVCAR-4 = test system: OVCAR-4
TK-10 = test system: TK-10
Malme-3M = test system: Malme-3M

Structure (SMILES)	GI50 (UACC-62)	GI50 (SR)	GI50 (OVCAR-8)	GI50 (SF-268)	GI50 (HOP-92)	GI50 (NCI-H460)	GI50 (U-251)	GI50 (T47D)	GI50 (A549)	GI50 (MOLT-4)	GI50 (SW-620)	GI50 (A498)	GI50 (786-0)	GI50 (K562)	GI50 (M14)	GI50 (SK-MEL-28)	GI50 (OVCAR-4)	GI50 (TK-10)	GI50 (Malme-3M)
O=c1oc2ccccc2c2c(=O)c3ccc(OC/C(=N/O)c4ccc(Cl)cc4)cc3oc12	5.07 µM (inactive)	2.88 µM (inactive)	24 µM (inactive)	14.2 µM (inactive)	11 µM (inactive)	11.9 µM (inactive)	9.51 µM (inactive)	29.4 µM (inactive)	13.2 µM (inactive)	5.06 µM (inactive)	12.8 µM (inactive)	3.15 µM (inactive)	11.4 µM (inactive)	2 µM (inactive)	14.6 µM (inactive)				
C=C(C)CC1=C(OCC)C(OC)(OCC)C1=O (centres undefined)	> 100 µM (inactive)		> 100 µM (inactive)	> 100 µM (inactive)	> 100 µM (inactive)	> 100 µM (inactive)	> 100 µM (inactive)	> 100 µM (inactive)	> 100 µM (inactive)	> 100 µM (inactive)	> 100 µM (inactive)	> 100 µM (inactive)	> 100 µM (inactive)		> 100 µM (inactive)	> 100 µM (inactive)	> 100 µM (inactive)	> 100 µM (inactive)	
CC(=O)C1=C(C)N2C(=NC3=C(CCc4ccccc43)C2c2cccc(Br)c2)S1 (centres undefined)	68.2 µM (inactive)		> 100 µM (inactive)	> 100 µM (inactive)	> 100 µM (inactive)		> 100 µM (inactive)	> 100 µM (inactive)	> 100 µM (inactive)		> 100 µM (inactive)	> 100 µM (inactive)	> 100 µM (inactive)		> 100 µM (inactive)	> 100 µM (inactive)	> 100 µM (inactive)		
CCCCCCCCCCCCOP(=O)(O)OP(=O)(O)OCC1OC(n2cc(C)c(=O)[nH]c2=O)CC1O (centres undefined)			> 100 µM (inactive)	> 100 µM (inactive)	> 100 µM (inactive)	> 100 µM (inactive)	> 100 µM (inactive)	> 100 µM (inactive)	> 100 µM (inactive)	> 100 µM (inactive)	> 100 µM (inactive)	> 100 µM (inactive)	> 100 µM (inactive)	> 100 µM (inactive)	> 100 µM (inactive)	> 100 µM (inactive)	> 100 µM (inactive)	> 100 µM (inactive)	> 100 µM (inactive)
Nc1nc(N)c2nn(-c3ccc(C(=O)O)cc3)nc2n1	> 100 µM (inactive)		> 100 µM (inactive)	> 100 µM (inactive)	> 100 µM (inactive)	> 100 µM (inactive)	> 100 µM (inactive)	> 100 µM (inactive)	> 100 µM (inactive)	> 100 µM (inactive)	> 100 µM (inactive)	> 100 µM (inactive)	> 100 µM (inactive)	> 100 µM (inactive)	> 100 µM (inactive)	> 100 µM (inactive)	> 100 µM (inactive)	> 100 µM (inactive)	
CC(C)(C)OC(=O)N1N=CCC1c1ccccc1 (centres undefined)	> 100 µM (inactive)	> 100 µM (inactive)	> 100 µM (inactive)	> 100 µM (inactive)	> 100 µM (inactive)	> 100 µM (inactive)		> 100 µM (inactive)	> 100 µM (inactive)		> 100 µM (inactive)	> 100 µM (inactive)	> 100 µM (inactive)	> 100 µM (inactive)	> 100 µM (inactive)			> 100 µM (inactive)	
COc1ccc(C(=O)Nc2ccc(O)c(=O)cc2)cc1	32.5 µM (inactive)	17.5 µM (inactive)	30.6 µM (inactive)	21 µM (inactive)		15.3 µM (inactive)	38.7 µM (inactive)	< 0.01 µM (active)	43.9 µM (inactive)		30.7 µM (inactive)	< 0.01 µM (active)	51.1 µM (inactive)	32.4 µM (inactive)	78 µM (inactive)	22.5 µM (inactive)		53 µM (inactive)	43.9 µM (inactive)
N=C(N)c1ccc2oc3ccc(C(=N)N)cc3c(=O)c2c1	> 100 µM (inactive)		> 100 µM (inactive)	> 100 µM (inactive)	> 100 µM (inactive)	> 100 µM (inactive)	> 100 µM (inactive)	> 100 µM (inactive)	> 100 µM (inactive)	> 100 µM (inactive)	> 100 µM (inactive)	> 100 µM (inactive)	> 100 µM (inactive)	> 100 µM (inactive)	> 100 µM (inactive)	> 100 µM (inactive)	> 100 µM (inactive)	> 100 µM (inactive)	98.2 µM (inactive)
Oc1nncc2[nH]c(-c3ccccc3)cc12	33.9 µM (inactive)	46.5 µM (inactive)	78.7 µM (inactive)	39.4 µM (inactive)	> 100 µM (inactive)	45.5 µM (inactive)	52 µM (inactive)	23.7 µM (inactive)	49.3 µM (inactive)	17 µM (inactive)	64.4 µM (inactive)		75 µM (inactive)	44.1 µM (inactive)	51.8 µM (inactive)		55.1 µM (inactive)	39.4 µM (inactive)	56.9 µM (inactive)
Cc1cc(=O)n2nc(CCl)sc2n1	14.4 µM (inactive)	13.1 µM (inactive)	16.7 µM (inactive)	15.8 µM (inactive)	12.6 µM (inactive)	11.4 µM (inactive)	5.13 µM (inactive)	15.3 µM (inactive)	16.5 µM (inactive)	11.8 µM (inactive)	15.8 µM (inactive)		15.7 µM (inactive)	17.8 µM (inactive)	11.2 µM (inactive)	13.2 µM (inactive)	17.8 µM (inactive)	10.2 µM (inactive)	12.8 µM (inactive)
C=CCCC(=O)N1CCC(C(=O)OCC)C1=O (centres undefined)	> 100 µM (inactive)		> 100 µM (inactive)	> 100 µM (inactive)			> 100 µM (inactive)	> 100 µM (inactive)	> 100 µM (inactive)	> 100 µM (inactive)	> 100 µM (inactive)	> 100 µM (inactive)	> 100 µM (inactive)		> 100 µM (inactive)	> 100 µM (inactive)	> 100 µM (inactive)	> 100 µM (inactive)	> 100 µM (inactive)
C/C(=N\OCC(O)CNCCSCc1ccccc1)c1ccccc1Cl (centres undefined)	18.6 µM (inactive)	31.7 µM (inactive)	14.6 µM (inactive)	17.3 µM (inactive)	13.2 µM (inactive)	21.6 µM (inactive)		22.6 µM (inactive)	19.6 µM (inactive)	47.5 µM (inactive)	20 µM (inactive)	15.6 µM (inactive)	21.4 µM (inactive)	38.4 µM (inactive)	21.8 µM (inactive)	20.7 µM (inactive)		17 µM (inactive)	19.8 µM (inactive)
O=C1C(NS(=O)(=O)c2ccccc2)=C(n2ccnc2)C(=O)c2ccccc21	> 100 µM (inactive)	> 100 µM (inactive)	> 100 µM (inactive)	> 100 µM (inactive)	> 100 µM (inactive)	> 100 µM (inactive)	> 100 µM (inactive)	> 100 µM (inactive)	> 100 µM (inactive)	> 100 µM (inactive)	> 100 µM (inactive)		> 100 µM (inactive)	> 100 µM (inactive)	> 100 µM (inactive)	> 100 µM (inactive)	> 100 µM (inactive)	24.7 µM (inactive)	96.4 µM (inactive)
CCN(c1cccc(NC(=S)Nc2ccccc2N(CC)c2cc(-c3ccccc3)no2)c1)c1cc(-c2ccccc2)no1	> 100 µM (inactive)	> 100 µM (inactive)	> 100 µM (inactive)	> 100 µM (inactive)	> 100 µM (inactive)	> 100 µM (inactive)	> 100 µM (inactive)	> 100 µM (inactive)	> 100 µM (inactive)	> 100 µM (inactive)	> 100 µM (inactive)		> 100 µM (inactive)	> 100 µM (inactive)	> 100 µM (inactive)	> 100 µM (inactive)	> 100 µM (inactive)	> 100 µM (inactive)	> 100 µM (inactive)
CC1(C)CN=C(Nc2ccc(F)cc2)S1	> 100 µM (inactive)	> 100 µM (inactive)	> 100 µM (inactive)	> 100 µM (inactive)	59.7 µM (inactive)		> 100 µM (inactive)	> 100 µM (inactive)	> 100 µM (inactive)	> 100 µM (inactive)	> 100 µM (inactive)		> 100 µM (inactive)	> 100 µM (inactive)	> 100 µM (inactive)	> 100 µM (inactive)	> 100 µM (inactive)	> 100 µM (inactive)	> 100 µM (inactive)
CC(=O)N1C(c2[nH]c3ccccc3c2Cc2ccccc2)CCN1c1ccccc1 (centres undefined)		4.81 µM (inactive)	> 10 µM (inactive)	4.72 µM (inactive)		5.22 µM (inactive)		6.41 µM (inactive)	4.88 µM (inactive)	4.4 µM (inactive)	> 10 µM (inactive)		> 10 µM (inactive)	3.05 µM (inactive)	7.93 µM (inactive)	> 10 µM (inactive)	> 10 µM (inactive)	> 10 µM (inactive)	> 10 µM (inactive)
CC(=O)OCC1OC(Oc2cc(C)c(O)cc2C/C=C(\C)CC/C=C(\C)CC(=O)CC(C)C)C(O)C(OC(C)=O)C1OC(C)=O (centres undefined)	13 µM (inactive)		16.9 µM (inactive)	21.2 µM (inactive)	45.8 µM (inactive)	13.7 µM (inactive)	13.6 µM (inactive)	9.42 µM (inactive)	7.8 µM (inactive)	9.23 µM (inactive)	11 µM (inactive)	11 µM (inactive)	21 µM (inactive)	9.38 µM (inactive)	5.22 µM (inactive)	27.4 µM (inactive)	19.6 µM (inactive)	16.2 µM (inactive)	> 50 µM (inactive)
